Assay results from PubChem BioAssay (NCI).
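Exposure lasted 48 hours, with cells grown in 96-well plates and compounds tested at five concentrations. GI50: concentration for 50% inhibition of growth. The concentration for full growth arrest is given as TGI.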

Tests used:
Assay in all cases: NCI-60 cell line screen, 48 h
[1] = test system: TK-10 renal
[2] = test system: HL-60(TB) leukemia
[3] = test system: NCI-H522 lung
[4] = test system: SF-268 CNS
[5] = test system: UACC-62 melanoma
[6] = test system: DU-145 prostate
[7] = test system: BT-549 breast
[8] = test system: A549 NSCLC
[9] = test system: K-562 leukemia
[10] = test system: SNB-75 CNS
[11] = test system: RPMI-8226 leukemia
[12] = test system: T-47D breast
[13] = test system: OVCAR-5 ovarian
[14] = test system: SK-OV-3 ovarian
[15] = test system: SK-MEL-2 melanoma
[16] = test system: MOLT-4 leukemia
[17] = test system: M14 melanoma
[18] = test system: U251 CNS
[19] = test system: MDA-MB-435
[20] = test system: EKVX NSCLC
[21] = test system: SK-MEL-5 melanoma
[22] = test system: A498 renal
[23] = test system: HCT-15 colon
[24] = test system: NCI-H460 lung
[25] = test system: CCRF-CEM leukemia
[26] = test system: HS 578T breast
[27] = test system: SW-620 colon
[28] = test system: HCC-2998 colon
[29] = test system: SK-MEL-28 melanoma
[30] = test system: 786-0 renal
[31] = test system: SF-295 CNS
[32] = test system: LOX IMVI melanoma
[33] = test system: HCT-116 colon
[34] = test system: MALME-3M melanoma
[35] = test system: SNB-19 CNS
[36] = test system: NCI-H23 lung
[37] = test system: SN12C renal
[38] = test system: MDA-MB-231 breast
[39] = test system: HOP-62 NSCLC
[40] = test system: HT29 colon
[41] = test system: HOP-92 NSCLC
[42] = test system: IGROV1 ovarian
[43] = test system: UO-31 renal
[44] = test system: SR leukemia
[45] = test system: OVCAR-4 ovarian
[46] = test system: PC-3 prostate
[47] = test system: ACHN renal
[48] = test system: KM12 colon
[49] = test system: MCF7 breast
[50] = test system: RXF 393 renal
[51] = test system: SF-539 CNS
[52] = test system: NCI/ADR-RES ovarian
[53] = test system: NCI-H226 lung
[54] = test system: OVCAR-3 ovarian
[55] = test system: COLO 205 colon
[56] = test system: OVCAR-8 ovarian

Work on `NCC(=O)NS(=O)(=O)OC[C@H]1O[C@@H](n2cnc3c(N)ncnc32)[C@H](O)[C@@H]1O` yielded a GI50 [1] of 2.75 µM, a TGI [1] of 5.78 µM and a GI50 [2] of 2.78 µM. It also gave a TGI [2] of 6.95 µM, a GI50 [3] of 1.75 µM and a TGI [3] of 3.85 µM. For the same compound, the GI50 [4] was 0.503 µM, the TGI [4] was 5.65 µM and the GI50 [5] was 1.85 µM. The TGI [5] was 3.78 µM, the GI50 [6] was 0.699 µM and the TGI [6] was 5.61 µM. It also gave a GI50 [7] of 2.34 µM, a TGI [7] of 5.56 µM and a GI50 [8] of 2.32 µM. For the same compound, the TGI [8] was 5.27 µM, the GI50 [9] was 3.71 µM and the TGI [9] was 11.8 µM. For the same compound, the GI50 [10] was 1.14 µM, the TGI [10] was 3.32 µM and the GI50 [11] was 3.29 µM. For the same compound, the TGI [11] was 10.1 µM, the GI50 [12] was 2.32 µM and the TGI [12] was 9.21 µM. For the same compound, the GI50 [13] was 0.75 µM, the TGI [13] was 4.1 µM and the GI50 [14] was 2.87 µM. It also gave a TGI [14] of 7.94 µM, a GI50 [15] of 2.22 µM and a TGI [15] of 4.69 µM. For the same compound, the GI50 [16] was 2.62 µM, the TGI [16] was 8.86 µM and the GI50 [17] was 1.81 µM. The TGI [17] was 3.61 µM, the GI50 [18] was 0.555 µM and the TGI [18] was 1.98 µM. It also gave a GI50 [19] of 1.84 µM, a TGI [19] of 3.49 µM and a GI50 [20] of 2.58 µM. The TGI [20] was 8.88 µM, the GI50 [21] was 1.85 µM and the TGI [21] was 3.34 µM. The GI50 [22] was 1.6 µM, the TGI [22] was 3.21 µM and the GI50 [23] was 2.92 µM. For the same compound, the TGI [23] was 10.1 µM, the GI50 [24] was 3.23 µM and the TGI [24] was 10.1 µM. For the same compound, the GI50 [25] was 3.71 µM, the TGI [25] was > 100 µM and the GI50 [26] was 2.89 µM. The TGI [26] was 9.13 µM, the GI50 [27] was 3.71 µM and the TGI [27] was 24.6 µM. For the same compound, the GI50 [28] was 2.04 µM, the TGI [28] was 4.34 µM and the GI50 [29] was 1.93 µM. It also gave a TGI [29] of 4.14 µM, a GI50 [30] of 1.77 µM and a TGI [30] of 3.47 µM. It also gave a GI50 [31] of 0.861 µM, a TGI [31] of 2.56 µM and a GI50 [32] of 1.68 µM. For the same compound, the TGI [32] was 3.52 µM, the GI50 [33] was 3.14 µM and the TGI [33] was 9.19 µM. The GI50 [34] was 1.92 µM, the TGI [34] was 3.87 µM and the GI50 [35] was 0.378 µM. For the same compound, the TGI [35] was 1.48 µM, the GI50 [36] was 2.56 µM and the TGI [36] was 7.04 µM. The GI50 [37] was 0.563 µM, the TGI [37] was 4.6 µM and the GI50 [38] was 0.526 µM. It also gave a TGI [38] of 2.62 µM, a GI50 [39] of 0.368 µM and a TGI [39] of 1.68 µM. The GI50 [40] was 2.92 µM, the TGI [40] was 7.46 µM and the GI50 [41] was 2.97 µM. It also gave a TGI [41] of 6.78 µM, a GI50 [42] of 3.04 µM and a TGI [42] of 7.68 µM. The GI50 [43] was 1.71 µM, the TGI [43] was 3.25 µM and the GI50 [44] was 0.936 µM. The TGI [44] was > 100 µM, the GI50 [45] was 0.388 µM and the TGI [45] was 2.45 µM. The GI50 [46] was 2.66 µM, the TGI [46] was 6.47 µM and the GI50 [47] was 2.89 µM. It also gave a TGI [47] of 8.37 µM, a GI50 [48] of 3.22 µM and a TGI [48] of 14.4 µM. For the same compound, the GI50 [49] was 2.85 µM, the TGI [49] was 18.7 µM and the GI50 [50] was 2.11 µM. The TGI [50] was 4.2 µM, the GI50 [51] was 1.43 µM and the TGI [51] was 3.58 µM. The GI50 [52] was 2.53 µM, the TGI [52] was 9.67 µM and the GI50 [53] was 2 µM. It also gave a TGI [53] of 3.77 µM, a GI50 [54] of 2.01 µM and a TGI [54] of 4.48 µM. For the same compound, the GI50 [55] was 2.27 µM, the TGI [55] was 6.14 µM and the GI50 [56] was 2.48 µM. For the same compound, the TGI [56] was 7.59 µM.
